Results reported in ChEMBL document CHEMBL2384919, “Identification of New Nonsteroidal RORα Ligands; Related Structure-Activity Relationships and Docking Studies” (ACS Med Chem Lett, 2013).
Active and inactive are the calls of the source. The rule behind the calls is not given here.

Assays:
[1] = target: T1, Nuclear receptor ROR-alpha (Homo sapiens) (UniProt P35398); assay: Partial agonist activity at GST-fussed RORalpha (unknown origin) assessed as recruitment of TIF2-BAP protein after overnight incubation by pull down assay relative to 7DC
T1 sequence (whole entry): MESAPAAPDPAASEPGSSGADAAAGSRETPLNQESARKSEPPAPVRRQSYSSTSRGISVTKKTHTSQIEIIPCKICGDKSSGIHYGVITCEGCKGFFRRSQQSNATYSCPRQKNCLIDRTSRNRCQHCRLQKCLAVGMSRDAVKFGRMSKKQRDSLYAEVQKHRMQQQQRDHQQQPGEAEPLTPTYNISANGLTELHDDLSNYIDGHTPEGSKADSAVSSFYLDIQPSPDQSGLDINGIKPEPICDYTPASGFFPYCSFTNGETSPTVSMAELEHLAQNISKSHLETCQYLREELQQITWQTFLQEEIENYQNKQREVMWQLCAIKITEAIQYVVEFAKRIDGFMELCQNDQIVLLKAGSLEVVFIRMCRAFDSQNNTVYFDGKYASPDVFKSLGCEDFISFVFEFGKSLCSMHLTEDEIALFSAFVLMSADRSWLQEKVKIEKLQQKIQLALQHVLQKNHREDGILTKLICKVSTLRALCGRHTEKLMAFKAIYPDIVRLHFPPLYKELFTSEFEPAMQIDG

[2] = target: T1, Nuclear receptor ROR-alpha (Homo sapiens); assay: Partial agonist activity at GST-fussed RORalpha (unknown origin) assessed as recruitment of TIF2 mutant-BAP protein after overnight incubation by pull down assay
[3] = target: T2, Nuclear receptor ROR-alpha (Homo sapiens, UniProt P35398); assay: Partial agonist activity at GST-fussed RORalpha (unknown origin) assessed as recruitment of TIF2-BAP protein after overnight incubation by pull down assay
T2 sequence (P35398 whole entry): T1 sequence (whole entry)

[4] = target: T1, Nuclear receptor ROR-alpha (Homo sapiens); assay: Partial agonist activity at GST-fussed RORalpha (unknown origin) assessed as recruitment of TIF2-BAP protein at 30 uM after overnight incubation by pull down assay relative to 7DC

For `CCOC(=O)C1=C(C)NC(=O)NC1c1ccc(OCc2ccccc2)cc1` (racemic), the Emax [1] was 25%, the Activity [2] was “inactive” and the EC50 [3] was 4.3 µM.

`COc1ccc(COC(=O)C2=C(C)NC(=O)NC2c2ccc(OCc3ccccc3)c(OC)c2)cc1` (racemic) was tested, and the Emax [1] was 19%, the Activity [2] was “inactive” and the EC50 [3] was 10.9 µM.

With `COc1cccc(COC(=O)C2=C(C)NC(=O)NC2c2ccc(OCc3ccccc3)c(OC)c2)c1` (racemic) the Emax [1] was 55%, the Activity [2] was “inactive” and the EC50 [3] was 26.2 µM.

In the case of `COc1ccc(COC(=O)C2=C(C)NC(=O)NC2c2ccc(OCc3ccccc3)c(OC)c2)cc1OC` (racemic), the Emax [1] is reported as 43%, the Activity [2] is reported as “inactive” and the EC50 [3] is reported as 26.3 µM.

With `COc1cc(C2NC(=O)NC(C)=C2C(=O)OCc2ccc3c(c2)OCO3)ccc1OCc1ccccc1` (racemic) the Emax [1] was 70%, the Activity [2] was “inactive” and the EC50 [3] was 12.5 µM.

For `COc1cc(C2NC(=O)NC(C)=C2C(=O)OCCSC)ccc1OCc1ccccc1` (racemic), the Emax [1] was 27%, the Activity [2] was “inactive” and the EC50 [3] was over 30 µM.

With `COC(=O)C1=C(C)NC(=O)NC1c1ccc(OCc2ccccc2)c(OC)c1` (racemic) the Emax [1] was 33%, the Activity [2] was “inactive” and the EC50 [3] was 13.1 µM.

In the case of `C=CCOC(=O)C1=C(C)NC(=O)NC1c1ccc(OCc2ccccc2)c(OC)c1` (racemic), the Emax [1] is reported as 76%, the Activity [2] is reported as “inactive” and the EC50 [3] is reported as 22.9 µM.

With `CCCCOC(=O)C1=C(C)NC(=O)NC1c1ccc(OCc2ccccc2)c(OC)c1` (racemic) the Emax [1] was 58%, the Activity [2] was “inactive” and the EC50 [3] was 14 µM.

With `COc1cc(C2NC(=O)NC(C)=C2C(=O)OCC(F)(F)F)ccc1OCc1ccccc1` (racemic) the Emax [1] was 80%, the Activity [2] was “inactive” and the EC50 [3] was over 30 µM.

With `CC1=C(C(=O)OCC(F)(F)F)C(c2ccc(OCc3ccccc3)cc2)NC(=O)N1` (racemic) the Emax [1] was 12%, the Activity [2] was “inactive” and the EC50 [3] was over 30 µM.

An Emax [1] of 39% and an EC50 [3] of 8.1 µM were found for `CC1=C(C(=O)OCCOc2ccccc2)C(c2ccc(OCc3ccccc3)cc2)NC(=O)N1` (racemic) in this work.

An Emax [1] of 55% and an EC50 [3] of 5.5 µM were found for `CCOC(=O)C1=C(C)NC(=O)NC1c1cc(OC)c(OCc2ccccc2Cl)cc1Cl` (racemic) in this work.

An Emax [1] of 56% and an EC50 [3] of 8.9 µM were found for `CCOC(=O)C1=C(C)NC(=O)NC1c1ccc(OCc2ccccc2)c(OC)c1` (racemic) in this work.

With `CCOC(=O)C1=C(C)NC(=O)NC1c1ccc(OCCc2ccccc2)c(OC)c1` (racemic) the Emax [1] was 36%, the Activity [2] was “inactive” and the EC50 [3] was 20.3 µM.

With `COc1cc(C2NC(=O)NC(C)=C2C(C)=O)ccc1OCc1ccccc1Cl` (racemic) the Emax [1] was 48%, the Activity [2] was “inactive” and the EC50 [3] was 28.2 µM.

In the case of `CCOC(=O)C1=C(C)N(C)C(=O)NC1c1ccc(OCc2ccccc2)c(OC)c1` (racemic), the Emax [1] is reported as 29%, the Activity [2] is reported as “inactive” and the EC50 [3] is reported as over 19 µM.

For `CCOC(=O)C1=C(C)NC(=O)N(C)C1c1ccc(OCc2ccccc2)c(OC)c1` (racemic), the Emax [1] was 19%, the Activity [2] was “inactive” and the EC50 [3] was over 30 µM.

For `CCOC(=O)C1=C(CC)NC(=O)NC1c1ccc(OCc2ccccc2)c(OC)c1` (racemic), the Emax [1] was over 45%, the Activity [2] was “inactive” and the EC50 [3] was over 30 µM.

In the case of `COc1cc(C2NC(=O)NC(C)=C2C(=O)OCc2ccccc2)ccc1OCc1ccccc1` (racemic), the Emax [1] is reported as 44%, the Activity [2] is reported as “inactive” and the EC50 [3] is reported as over 30 µM.

In the case of `CC1=C(C(=O)Nc2ccccc2)C(c2ccc(OCc3ccccc3)cc2)NC(=O)N1` (racemic), the Activity [4] is reported as “inactive” and the Activity [2] is reported as “inactive”.

For `CC1=C(C(=O)OCC(C)C)C(c2ccc(OCc3ccccc3)cc2)NC(=O)N1` (racemic), the Activity [4] was “inactive” and the Activity [2] was “inactive”.

With `CCC(C)NC(=O)C1=C(C)NC(=O)NC1c1ccc(OCc2ccccc2)cc1` (racemic) the Activity [4] was “inactive” and the Activity [2] was “inactive”.

In the case of `CCCOc1ccc(C2NC(=O)NC(C)=C2C(=O)OCC)cc1OC` (racemic), the Activity [4] is reported as “inactive” and the Activity [2] is reported as “inactive”.

With `CCOC(=O)C1=C(C)NC(=O)NC1c1cc(OC)c(O)cc1Cl` (racemic) the Activity [4] was “inactive” and the Activity [2] was “inactive”.

In the case of `CCOC(=O)C1=C(C)NC(=O)NC1c1cc(OC)c(OC)cc1Cl` (racemic), the Activity [4] is reported as “inactive” and the Activity [2] is reported as “inactive”.

With `CCOC(=O)C1=C(C)NC(=O)NC1c1ccc(OCCCc2ccccc2)c(OC)c1` (racemic) the Activity [4] was “inactive” and the Activity [2] was “inactive”.

`COc1cc(C2NC(=O)NC(C)=C2C(=O)NCc2ccccc2)ccc1OCc1ccccc1` (racemic) was tested, and the Activity [4] was “inactive” and the Activity [2] was “inactive”.

With `COc1cc(C2NC(=O)NC(C)=C2C(=O)O)ccc1OCc1ccccc1` (racemic) the Activity [4] was “inactive” and the Activity [2] was “inactive”.

In the case of `COc1cc(C2NC(=O)NC(C)=C2C(=O)OCC2CCCCC2)ccc1OCc1ccccc1` (racemic), the Activity [4] is reported as “inactive” and the Activity [2] is reported as “inactive”.

`COc1cc(C2NC(=O)NC(C)=C2C(=O)OCC2CCCO2)ccc1OCc1ccccc1` (racemic) was tested, and the Activity [4] was “inactive” and the Activity [2] was “inactive”.

In the case of `COc1cc(C2NC(=O)NC(C)=C2C(=O)OCCOC(C)C)ccc1OCc1ccccc1` (racemic), the Activity [4] is reported as “inactive” and the Activity [2] is reported as “inactive”.

For `COc1cc(C2NC(=O)NC(C)=C2C(=O)OCCc2ccccc2)ccc1OCc1ccccc1` (racemic), the Activity [4] was “inactive” and the Activity [2] was “inactive”.

For `COc1cc(C2NC(=O)NC(C)=C2C(C)=O)ccc1OCc1ccccc1` (racemic), the Activity [4] was “inactive” and the Activity [2] was “inactive”.

With `COc1cc(C2NC(=O)NC(C)=C2C(N)=O)ccc1OCc1ccccc1` (racemic) the Activity [4] was “inactive” and the Activity [2] was “inactive”.

An EC50 [3] of 10.9 µM was found for `CCOc1cc(C2NC(=O)NC(C)=C2C(C)=O)ccc1OCc1ccccc1Cl` (single isomer, unassigned; enantiomer 1) [listing 1 of 2 here] in this work.

`CCOc1cc(C2NC(=O)NC(C)=C2C(C)=O)ccc1OCc1ccccc1Cl` (single isomer, unassigned; enantiomer 1) [listing 2 of 2 here] was tested, and the Emax [1] was 85% and the Activity [2] was “inactive”.

An EC50 [3] of over 30 µM was found for `CCOc1cc(C2NC(=O)NC(C)=C2C(C)=O)ccc1OCc1ccccc1Cl` (single isomer, unassigned; enantiomer 2) [listing 1 of 2 here] in this work.

With `CCOc1cc(C2NC(=O)NC(C)=C2C(C)=O)ccc1OCc1ccccc1Cl` (single isomer, unassigned; enantiomer 2) [listing 2 of 2 here] the Emax [1] was over 41% and the Activity [2] was “inactive”.

An EC50 [3] of 12.7 µM was found for `CCOc1cc(C2NC(=O)NC(C)=C2C(C)=O)ccc1OCc1ccccc1Cl` (stereo in doubt; 1) [listing 1 of 2 here] in this work.

In the case of `CCOc1cc(C2NC(=O)NC(C)=C2C(C)=O)ccc1OCc1ccccc1Cl` (stereo in doubt; 1) [listing 2 of 2 here], the Emax [1] is reported as 88% and the Activity [2] is reported as “inactive”.
